From patent publication US5441563A, “Highly insoluble azole embossing inhibitor and the use thereof” (Armstrong World Industries, Inc., priority 1994, dated 1995)
In brackets after ≈: the same amount, converted by molar mass. Read-outs that look alike come from different tables or passages of the source.

Legend:
[1] = Inhibitor activity (IA), depth of chemical embossing and degree of expansion ranked against BTA-P (Table II); parameters: key to Inhibitor Activity (IA): 1: Excellent; 2: Very Good; 3: Good; 4: Fair; 5: Poor; None; conditions: for Inhibitor Activity (IA): 10% by weight inhibitor in ink, scale 1 to 5, BTA-P benchmark = 1, 7 mil plastisol, 185 °C, 1.9 min
Method: Table II sets forth a number of properties of the examples and comparative examples which were made and tested. Most of these compounds were prepared using the direct milling procedure and then evaluated for inhibitor activity, ghosting and embossing definition.
The inhibited inks (at 10% by weight inhibitor concentration) were printed on 7 mils of an expandable plastisol coated onto a glass mat which was saturated with a non-expandable plastisol. This was done on a flat-bed gravure proof press using a 100 line screen step-wedge gravure plate. The steps ranged from a deep shadow tone to a shallow highlight tone. The inks printed and dried without any tack.
The printed samples were coated with 10 mils of a clear plastisol wearlayer and heated for 1.9±0.1 minutes at an air temperature of 185°±2° C. in a Werner. Mathis oven to fuse and expand the foamable plastisol to about 14 mils (a 2:1 blow ratio). The thickness of the printed coated areas (i.e., restricted area) was measured in mils and compared to the thickness of the expanded unprinted surrounding areas. This difference was recorded as depth of chemical embossing and was used along with the degree of expansion in the inhibited area to access the inhibitor activity (IA).
The inhibitor activity of the BTA-P derivative was established as the benchmark and on a scale of 1 to 5 was given a rating of 1 (five on the scale being less than one mil of overall chemical embossing). This is a subjective ranking where the other compounds were evaluated for inhibitor activity by comparing them to BTA-P, both numerically and visually.

physchem = assay type: physicochemical; conditions: for Solubility in H2O / solubility at 24 h: water; for Solubility in H2O: 24 h

Solubility in iPrOH (physchem; 1440 min)	Compound	Inhibitor Activity (IA) [1]	other results
> 50 % BY WT	1Bis(2-ethylhexyl)aminomethyltolyltriazole [TTA-EH, reference compound]	2	Solubility in H2O (physchem): < 0.01 % BY WT
> 50 % BY WT	1Bis(hydroxyethyl)aminomethyltotyltriazole [TTA-HE, reference compound]	3	Solubility in H2O (physchem): ~50 % BY WT
	c1ccc2[nH]cnc2c1 [BI, Benzimidazole]	2	Inhibitor effectiveness in words [1]: effective inhibitor; Solubility in iPrOH (physchem; isopropyl alcohol, room temperature, 24 hours): 15.30 % BY WT; solubility at 24 h (physchem; H2O, room temperature, 24 hours, read-out: Solubility in H2O): 5000 µg/mL (≈ 42300 µM)
0.211 % BY WT	c1ccc2c(c1)ncn2CN1CCN(Cn2cnc3ccccc32)CC1 [BI-P, N,N'-Bis(Benzimidazol-1-yl Methyl) Piperazine]	1	solubility at 24 h (physchem): 530 µg/mL (≈ 1530 µM)
53.9 % BY WT	c1ccc2[nH]nnc2c1 [BTA, Benzotriazole, reference compound]	2	solubility at 24 h (physchem): 19800 µg/mL (≈ 166000 µM)
0.137 % BY WT	O=C(O)c1ccc(S(=O)(=O)NCn2nnc3ccccc32)cc1 [BTA-4CBSA, N-(Benzotriazol-1-yl Methyl)-4'-Carboxybenzene Sulfonamide]	1	solubility at 24 h (physchem): 110 µg/mL (≈ 331 µM)
0.028 % BY WT	c1ccc2c(c1)nnn2CNCn1nnc2ccccc21 [BTA-A, bis(benzotriazol-1-ylmethyl) amine]	1	solubility at 24 h (physchem): 390 µg/mL (≈ 1400 µM)
	O=C(NCn1nnc2ccccc21)NC(=O)NCn1nnc2ccccc21 [BTA-B, 1,5-Bis(Benzotriazol-1'-yl Methyl) Biuret]	4	
0.120 % BY WT	O=S(=O)(NCn1nnc2ccccc21)c1cccc(S(=O)(=O)NCn2nnc3ccccc32)c1 [BTA-BDSA, 1(1',3'-benzenedisulfonamido)methyl benzotriazole]	1	solubility at 24 h (physchem): 890 µg/mL (≈ 1790 µM)
	c1ccc(-c2nc(NCn3nnc4ccccc43)nc(NCn3nnc4ccccc43)n2)cc1 [BTA-BG, 2,4-bis(benzotriazol-1'-ylmethyl) benzoguanamine]	4	
	CC(n1nnc2ccccc21)n1c2ccccc2c2ccccc21 (stereo not shown) [BTA-C, 1-(1'-(Carbazo-9'-yl)Ethyl) Benzotriazole, reference compound]	N	
	c1ccc2c(c1)nnn2Cn1nnc2ccccc21 [BTA-D, reference compound]	N	
	CN(Cn1nnc2ccccc21)C(=O)N(C)Cn1nnc2ccccc21 [BTA-DMU, 1,3-Bis(benzotriazol-1'-ylmethyl) N,N'-dimethyl urea]	3	
0.914 % BY WT	O=C(O)CN(Cn1nnc2ccccc21)Cn1nnc2ccccc21 [BTA-G, N,N-bis(benzotriazol-1-ylmethyl) glycine]	1	solubility at 24 h (physchem): 6900 µg/mL (≈ 20500 µM)
	O=C1CNC(=O)N1Cn1nnc2ccccc21 [BTA-H]	5	
	CS(=O)(=O)NCn1nnc2ccccc21 [BTA-MSA, 1-(1'-methanesulfonamido) methyl benzotriazole]	5	
	O=C(NCn1nnc2ccccc21)c1ccccc1 [BTA-PA, reference compound]	N	
	CC(N1CCCC1=O)n1nnc2ccccc21 (stereo not shown) [BTA-PY, 1-(1'-(2'-oxopyrrolidin-1'-yl)ethyl) benzotriazole]	5	
	c1ccc2c(c1)nnn2CNc1nc(NCn2nnc3ccccc32)nc(NCn2nnc3ccccc32)n1 [Example 3BTA-M]	3	
	CCCCc1ccc2c(c1)nnn2CNC(=O)NCn1nnc2cc(CCCC)ccc21 [Example 5-BBTA-U, 1,3-Bis(5'-Butyl Benzotriazol-1'-yl Methyl) Urea]	3	
	Cc1ccc2c(c1)nnn2CNC(=O)NCn1nnc2cc(C)ccc21 [Example 5-TTA-U, 1,3-bis(5'-tolyltriazol-1'-ylmethyl) urea]	3	
